Counter-ions that a name gives are not always drawn. Like-named read-outs stand apart in the source and are kept apart here.

A short description of data set [1]: Intrinsic dissolution rate, Rotation Disc Method (USP 1087). The data set is classed as physicochemical. The settings on record: 37° C., 100 rpm, average of two measurements. On the procedure: The raloxifene hydrochloride salt used in these experiments was purchased from Otto Bradt GmbH (batch MA/RF/12003) while the rest of the raloxifene acid additions salts were prepared according to Example 1-6.
The experiments were carried out following the procedure of Rotation Disc Method (USP 1087) using Vankel VK 7000 Intrinsic dissolution apparatus (Vankel Technology group, W. Vankelion) equipped with Vankel 12-4120 intrinsic disc having a surface area of 0.5 cm^2, Vankel 12-4130 surface plate, Vankel 12-4140 punch, and Vankel shaft and holder (surface area: 0.5 cm^2) and operating at a rotation rate of 100 rpm.
The buffer solution is handled in a 750 ml measuring bottle, degassed and transferred into a dissolution vessel. Approximately 100 mg compound is weighed out and transferred into an intrinsic disc. Said disc is then assembled, and to said disc a disc is applied in the IR-press at a pressure of 5 kN for 1 minute. The disc is started and samples of 10 ml are collected by use of “pressure vials” after 1, 10, 20, 30, 45, and 60 minutes. The change of volume is corrected using the equation: Q=Vs×(sumCn−1)+Cn×Vt wherein Q designates the volume at the time t, C designates the concentration of the sample n, Vt designates the volume of the liquid collected at the time t, and Vs designates the volume of the sample collected. The sample is measured against a standard using HPLC. In these measurements a 5 microns 3.9×150 mm column filled with symmetrical material is employed and as eluant a 20 mM phosphate buffer KH2PO4, pH 6.8 mixed with acetonitrile and tetrahydrofuran in the ratio 55:35:10 is used.
The standard is prepared by use of following procedure: 20 mg of salt is dissolved initially in 100 ml of MeOH and then 1 ml of this solution is transferred to a 50 ml flask with water and then 2 ml to a 20 ml flask of buffer in question.
pH 1: a 0.1 M HCl is used.
0.025 M Phosphate buffer solution pH 2.0: 3.40 g of potassium dihydrogen phosphate is dissolved in 900 ml of water. Then pH is adjusted to 2.0 with phosphoric acid and diluted to 1000.0 ml with water. Exactly 5.85 g of NaCl is added to 1 L of buffer.
0.025 M Phosphate buffer solution pH 3.0: 3.40 g of potassium dihydrogen phosphate is dissolved in 900 ml of water. Then pH is adjusted to 3.0 with phosphoric acid and diluted to 1000.0 ml with water. Exactly 5.85 g of NaCl is added to 1 L of buffer.
0.022 M Phosphate buffer solution pH 4.0: 3.0 g of potassium dihydrogen phosphate is dissolved in 800 ml of water. Then pH is adjusted with 1 M potassium hydroxide and phosphoric acid and diluted to 1000.0 ml with water. Exactly 5.85 g of NaCl is added to 1 L of buffer. 0.02 M Phosphate buffer solution pH 5.0: 2.72 g of potassium dihydrogen phosphate is dissolved in 800 ml of water. Then pH is adjusted with 1 M potassium hydroxide and diluted to 1000.0 ml with water. Exactly 5.85 g of NaCl is added to 1 L of buffer.

The conditions of data set [2]: cited from earlier work.
Data set [3] in a line: Solubility in aqueous solvents/media (general statement). The data set is classed as physicochemical. The settings on record: versus aqueous media.
The nature of data set [4]: Dissolution test in dilute acid, evaluated visually. The data set is classed as physicochemical. As to the method:
60 mg raloxifene HCl was transferred to a dissolution vessel containing one liter 0.1 M HCl. The mixture was vigorously mixed and left at room temperature over night. Subsequently the dissolution was evaluated visually.
A similar dissolution test was performed using 60 mg raloxifene hydrochloride in 0.1 M phosphoric acid.

Where [5] appears, read: Hydrochloride, pH 1 (0.1 M HCl).
Setting [6] is: Phosphate, pH 2, chloride 0.1 M.
[7] abbreviates: Phosphate, pH 3, chloride 0.1 M.
[8] abbreviates: Phosphate, pH 4, chloride 0.1 M.
[9] abbreviates: Phosphate, pH 5, chloride 0.1 M.

`CC(O)C(=O)O.O=C(c1ccc(OCCN2CCCCC2)cc1)c1c(-c2ccc(O)cc2)sc2cc(O)ccc12` [DL-lactate hemihydrate, [6-hydroxy-2-(4-hydroxyphenyl)benzo[b]thien-3-yl][4-[2-(1-piperidinyl)ethoxy]phenyl-, DL-lactate]: the “intrinsic dissolution rate (IDR)” value was determined as 0.0056 μmol/min * cm^2 in data set [1] (setting [5]); 0.0119 μmol/min * cm^2 in data set [1] (setting [6]); 0.0062 μmol/min * cm^2 in data set [1] (setting [7]); 0.0212 μmol/min * cm^2 in data set [1] (setting [8]); 0.0215 μmol/min * cm^2 in data set [1] (setting [9]).

For the compound `O=C(c1ccc(OCCN2CCCCC2)cc1)c1c(-c2ccc(O)cc2)sc2cc(O)ccc12` [Hydrochloride, raloxifene hydrochloride, reference compound], the “solubility in aqueous solvents” value in data set [2] (hydrochloride) is listed as “fairly soluble”. Also, the “intrinsic dissolution rate (IDR)” value in data set [1] (setting [5]) is reported as 0.0022 μmol/min * cm^2; in data set [1] (setting [6]) it was 0.0026 μmol/min * cm^2; in data set [1] (setting [7]), 0.0022 μmol/min * cm^2; in data set [1] (setting [8]) it was 0.0022 μmol/min * cm^2; in data set [1] (setting [9]) it was 0.0044 μmol/min * cm^2. Moreover, in data set [3], the “solubility in aqueous media comprising hydrochloric acid” value was “decreases significant”. Moreover, the dissolution evaluated visually entry is recorded as “all raloxifene hydrochloride seemed to be dissolved” in data set [4] (60 mg in 0.1 M phosphoric acid, similar test) and “Very little of the initial added amount of raloxifene hydrochloride was dissolved” in data set [4] (60 mg in one liter 0.1 M HCl, vigorously mixed, room temperature over night).

Consider `C[C@H](O)C(=O)O.O=C(c1ccc(OCCN2CCCCC2)cc1)c1c(-c2ccc(O)cc2)sc2cc(O)ccc12` [L-Lactate ¼-hydrate], for which the “intrinsic dissolution rate (IDR)” value came out at 0.0035 μmol/min * cm^2 in data set [1] (setting [5]); 0.0028 μmol/min * cm^2 in data set [1] (setting [6]); 0.0067 μmol/min * cm^2 in data set [1] (setting [7]); 0.0324 μmol/min * cm^2 in data set [1] (setting [8]); 0.0247 μmol/min * cm^2 in data set [1] (setting [9]).

As for `C[C@H](O)C(=O)O.O=C(c1ccc(OCCN2CCCCC2)cc1)c1c(-c2ccc(O)cc2)sc2cc(O)ccc12` [L-lactate hemihydrate], the “intrinsic dissolution rate (IDR)” value in data set [1] (setting [5]) was found to be 0.0475 μmol/min * cm^2; in data set [1] (setting [6]), 0.0453 μmol/min * cm^2; in data set [1] (setting [7]), 0.0403 μmol/min * cm^2; in data set [1] (setting [8]), 0.0190 μmol/min * cm^2; in data set [1] (setting [9]), 0.0091 μmol/min * cm^2.

As to `O=C(O)CC(=O)O.O=C(c1ccc(OCCN2CCCCC2)cc1)c1c(-c2ccc(O)cc2)sc2cc(O)ccc12` [Malonate], the “intrinsic dissolution rate (IDR)” value in data set [1] (setting [5]) is 0.0229 μmol/min * cm^2; in data set [1] (setting [6]) it was 0.0173 μmol/min * cm^2; in data set [1] (setting [7]), 0.0148 μmol/min * cm^2; in data set [1] (setting [8]), 0.0136 μmol/min * cm^2; in data set [1] (setting [9]), 0.0112 μmol/min * cm^2.

Regarding `O=C(c1ccc(OCCN2CCCCC2)cc1)c1c(-c2ccc(O)cc2)sc2cc(O)ccc12` [raloxifene as free base, 6-hydroxy-2-(4-hydrophenyl)-3-[4-(2-piperidinoethoxy)-benzoyl]benzo-[b]-thiophene], in data set [2], the “solubility in aqueous solvents” value is recorded as “only sparingly soluble”.

For “[6-hydroxy-2-(4-hydroxyphenyl)benzo[b]thien-3-yl][4-[2-(1-piperidinyl)ethoxy]phenyl-, succinate”, the “intrinsic dissolution rate (IDR)” value came to 0.0550 μmol/min * cm^2 in data set [1] (setting [5]); 0.0228 μmol/min * cm^2 in data set [1] (setting [6]); 0.0271 μmol/min * cm^2 in data set [1] (setting [7]); 0.0127 μmol/min * cm^2 in data set [1] (setting [8]); 0.0119 μmol/min * cm^2 in data set [1] (setting [9]).

Source of the values: patent publication US7964734B2, “Raloxifene acid addition salts and/or solvates thereof, improved method for purification of said raloxifene acid addition salts and/or solvates thereof and pharmaceutical compositions comprising these” (A/S Gea Farmaceutisk Fabrik, priority 2002, dated 2011).
